Experimental data published in PubChem BioAssay AID328 (DTP/NCI, 2004).
Several values for one entry are separate records, joined by “and”; a condition that tells them apart may be missing. Equal values may be shown once. Inconclusive results and toxic doses are left out. Non-standard residues stand in square brackets, D forms with d. Residues, ends and D or L forms follow the SMILES beside them. ξ: configuration not given here. *: point of attachment. ξPhe(4-N(CH2CH2Cl)2) = NC(Cc1ccc(N(CCCl)CCCl)cc1)C(=O)O; Cbz = O=C(OCc1ccccc1)*

System: BDF1 mice, P388 leukemia ip, median survival T/C
Test: NCI In Vivo Anticancer Drug Screen. Data for tumor model P388 Leukemia (intraperitoneal) in B6D2F1 (BDF1) mice
Settings: endpoint: median survival time, higher = longer survival
Method in brief: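 Vehicle-dosed animals serve as the reference; survival of compound-dosed, tumour-implanted mice is divided by it.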

[1] = dose: 0.39 mg/kg/injection, schedule: Q01DX009 (ip), vehicle: saline with Tween-80
[2] = dose: 0.78 mg/kg/injection, schedule: Q01DX009 (ip), vehicle: saline with Tween-80
[3] = dose: 1.56 mg/kg/injection, schedule: Q01DX009 (ip), vehicle: saline with Tween-80
[4] = dose: 3.12 mg/kg/injection, schedule: Q01DX009 (ip), vehicle: saline with Tween-80
[5] = dose: 100.0 mg/kg/injection, schedule: Q01DX009 (ip), vehicle: saline with Tween-80
[6] = dose: 100.0 mg/kg/injection, schedule: Q01DX009 (ip), vehicle: saline
[7] = dose: 200.0 mg/kg/injection, schedule: Q01DX009 (ip), vehicle: saline
[8] = dose: 100.0 mg/kg/injection, schedule: Q01DX009 (ip), vehicle: Klucel (hydroxypropylcellulose) (HPC)
[9] = dose: 200.0 mg/kg/injection, schedule: Q01DX009 (ip), vehicle: Klucel (hydroxypropylcellulose) (HPC)
[10] = dose: 400.0 mg/kg/injection, schedule: Q01DX009 (ip), vehicle: Klucel (hydroxypropylcellulose) (HPC)
[11] = dose: 50.0 mg/kg/injection, schedule: Q01DX009 (ip), vehicle: saline with Tween-80
[12] = dose: 100.0 mg/kg/injection, schedule: Q04DX003 (ip), vehicle: saline with Tween-80
[13] = dose: 200.0 mg/kg/injection, schedule: Q01DX009 (ip), vehicle: saline with Tween-80
[14] = dose: 200.0 mg/kg/injection, schedule: Q04DX003 (ip), vehicle: saline with Tween-80
[15] = dose: 25.0 mg/kg/injection, schedule: Q04DX003 (ip), vehicle: saline with Tween-80
[16] = dose: 400.0 mg/kg/injection, schedule: Q01DX009 (ip), vehicle: saline

For `C1CCC2C[N-]CCC2C1.C1CCC2C[N-]CCC2C1.C1CCC2C[N-]CCC2C1.C1CCC2C[N-]CCC2C1.[Cl][Rh][Cl]` (stereo not given), the T/C (dose: 0.13 mg/kg/injection, schedule: Q01DX009 (ip), vehicle: saline) was 95 % of control, the T/C (dose: 0.25 mg/kg/injection, schedule: Q01DX009 (ip), vehicle: saline) was 104 % of control and the T/C [1] was 115 % of control. The T/C (dose: 0.5 mg/kg/injection, schedule: Q01DX009 (ip), vehicle: saline) was 119 % of control, the T/C [2] was 115 % of control and the T/C (dose: 0.88 mg/kg/injection, schedule: Q01DX009 (ip), vehicle: saline) was 153 % of control. For the same molecule, the T/C (dose: 1.33 mg/kg/injection, schedule: Q01DX009 (ip), vehicle: saline) was 174 % of control, the T/C [3] was 150 % of control and the T/C (dose: 2.0 mg/kg/injection, schedule: Q01DX009 (ip), vehicle: saline) was 153 % of control. For the same molecule, the T/C (dose: 2.66 mg/kg/injection, schedule: Q01DX009 (ip), vehicle: saline) was 159 % of control, the T/C [4] was 185 % of control and the T/C (dose: 4.0 mg/kg/injection, schedule: Q01DX009 (ip), vehicle: saline) was 168 % of control and 170 % of control. For the same molecule, the T/C (dose: 6.0 mg/kg/injection, schedule: Q01DX009 (ip), vehicle: saline) was 100 % of control.
With `CC1(C)N=C(N)N=C(N)N1c1ccc(OCCOc2ccc(NC(=O)CBr)cc2)cc1` the T/C (dose: 2.5 mg/kg/injection, schedule: Q01DX009 (ip), vehicle: saline with Tween-80) was 95 % of control, the T/C (dose: 5.0 mg/kg/injection, schedule: Q01DX009 (ip), vehicle: saline with Tween-80) was 112 % of control and the T/C [5] was 172 % of control. The T/C [6] was 230 % of control, the T/C (dose: 100.0 mg/kg/injection, schedule: Q04DX003 (ip), vehicle: saline sonified) was 165 % of control and 170 % of control and the T/C (dose: 150.0 mg/kg/injection, schedule: Q01DX009 (ip), vehicle: saline with Tween-80) was 218 % of control. The T/C (dose: 150.0 mg/kg/injection, schedule: Q04DX003 (ip), vehicle: saline sonified) was 165 % of control, the T/C [7] was 90 % of control and the T/C (dose: 200.0 mg/kg/injection, schedule: Q04DX003 (ip), vehicle: saline sonified) was 200 % of control. For the same molecule, the T/C (dose: 400.0 mg/kg/injection, schedule: Q04DX003 (ip), vehicle: saline sonified) was 245 % of control.
With `Cc1ccc(CSc2ssc(=S)c2-c2ccccc2)cc1` the T/C (dose: 100.0 mg/kg/injection, schedule: Q01DX001 (ip), vehicle: Klucel (hydroxypropylcellulose) (HPC)) was 104 % of control, the T/C [8] was 110 % of control and the T/C (dose: 200.0 mg/kg/injection, schedule: Q01DX001 (ip), vehicle: Klucel (hydroxypropylcellulose) (HPC)) was 104 % of control. The T/C [9] was 110 % of control, the T/C (dose: 400.0 mg/kg/injection, schedule: Q01DX001 (ip), vehicle: Klucel (hydroxypropylcellulose) (HPC)) was 109 % of control and the T/C [10] was 115 % of control.
With `S=c1[nH]cc2cnccn12` the T/C (dose: 25.0 mg/kg/injection, schedule: Q01DX009 (ip), vehicle: saline with Tween-80) was 110 % of control, the T/C [11] was 115 % of control and the T/C [12] was 100 % of control. For the same molecule, the T/C [13] was 105 % of control and the T/C [14] was 110 % of control.
In the case of `S=c1[nH]nc2n1NC(c1ccoc1)=NN2`, the T/C [15] is reported as 122 % of control, the T/C (dose: 50.0 mg/kg/injection, schedule: Q04DX003 (ip), vehicle: saline with Tween-80) is reported as 100 % of control and the T/C [12] is reported as 113 % of control.
In the case of `CCOC(=O)C(Cc1ccc(N(CCCl)CCCl)cc1)NC(=O)C(Cc1ccccc1)NC(=O)C(NC(=O)CNC(=O)C1CCCN1)C(C)C` (stereo not given) (H-PGVF[ξPhe(4-N(CH2CH2Cl)2)]-OEt; configuration not given here), the T/C (dose: 5.0 mg/kg/injection, schedule: Q04DX003 (ip), vehicle: water) is reported as 95 % of control, the T/C (dose: 10.0 mg/kg/injection, schedule: Q04DX003 (ip), vehicle: water) is reported as 100 % of control and the T/C (dose: 20.0 mg/kg/injection, schedule: Q04DX003 (ip), vehicle: water) is reported as 176 % of control. The T/C (dose: 40.0 mg/kg/injection, schedule: Q04DX003 (ip), vehicle: water) was 241 % of control and the T/C (dose: 80.0 mg/kg/injection, schedule: Q04DX003 (ip), vehicle: water) was 265 % of control.
In the case of `O=C(O)C(Cc1ccccc1)NC(=O)C1CCCN1C(=O)OCc1ccccc1` (stereo not drawn) (Cbz-Pro-Phe-OH; configuration not given here), the T/C (dose: 50.0 mg/kg/injection, schedule: Q01DX005 (ip), vehicle: saline with Tween-80) is reported as 97 % of control, the T/C (dose: 100.0 mg/kg/injection, schedule: Q01DX005 (ip), vehicle: saline with Tween-80) is reported as 101 % of control and the T/C (dose: 200.0 mg/kg/injection, schedule: Q01DX005 (ip), vehicle: saline with Tween-80) is reported as 95 % of control.
In the case of `C/C1=C/CCCCCC1`, the T/C [6] is reported as 104 % of control, the T/C (dose: 100.0 mg/kg/injection, schedule: Q04DX003 (ip), vehicle: saline) is reported as 95 % of control and the T/C [7] is reported as 90 % of control. The T/C (dose: 200.0 mg/kg/injection, schedule: Q04DX003 (ip), vehicle: saline) was 100 % of control, the T/C [16] was 113 % of control and the T/C (dose: 400.0 mg/kg/injection, schedule: Q04DX003 (ip), vehicle: saline) was 95 % of control.
For `O=C(NO)c1ccc([N+](=O)[O-])cc1`, the T/C (dose: 240.0 mg/kg/injection, schedule: Q01DX010 (ip), vehicle: water) was 92 % of control, the T/C (dose: 270.0 mg/kg/injection, schedule: Q01DX010 (ip), vehicle: water) was 90 % of control and 113 % of control and the T/C (dose: 360.0 mg/kg/injection, schedule: Q01DX010 (ip), vehicle: water) was 123 % of control.
`CC(C1CCC/C(=N\NC(N)=O)C1)[N+](=O)[O-]` (stereo not given) was tested, and the T/C (dose: 0.19 mg/kg/injection, schedule: Q01DX009 (ip), vehicle: saline with Tween-80) was 103 % of control, the T/C [1] was 101 % of control and 102 % of control and 119 % of control and the T/C [2] was 95 % of control and 99 % of control. The T/C [3] was 96 % of control and 100 % of control and 109 % of control, the T/C [4] was 93 % of control and 108 % of control and 113 % of control and the T/C (dose: 6.25 mg/kg/injection, schedule: Q01DX009 (ip), vehicle: saline with Tween-80) was 92 % of control and 94 % of control.
In the case of `CCCCCCCCCCC(O)CCCCCCCCCC`, the T/C [11] is reported as 100 % of control, the T/C [5] is reported as 95 % of control and the T/C [13] is reported as 90 % of control.
For `C[C@]12CC[C@H](O)CC1=CC[C@@H]1[C@@H]2CC[C@]2(C)c3nc4ccccc4cc3C[C@@H]12`, the T/C [14] was 95 % of control.
With `COc1cccc(CC2c3ccccc3Nc3ccccc32)c1` the T/C (dose: 100.0 mg/kg/injection, schedule: Q01DX001 (ip), vehicle: saline with Tween-80) was 88 % of control, the T/C (dose: 200.0 mg/kg/injection, schedule: Q01DX001 (ip), vehicle: saline with Tween-80) was 87 % of control and the T/C (dose: 400.0 mg/kg/injection, schedule: Q01DX001 (ip), vehicle: saline with Tween-80) was 89 % of control.
In the case of `CCOC(=O)CC(=O)N/N=C(/C)C(=O)OCC`, the T/C [5] is reported as 108 % of control, the T/C [12] is reported as 88 % of control and the T/C [13] is reported as 99 % of control. For the same molecule, the T/C [14] was 97 % of control and the T/C (dose: 400.0 mg/kg/injection, schedule: Q04DX003 (ip), vehicle: saline with Tween-80) was 111 % of control.
In the case of `CC1(C)c2ccccc2C(C)(C(Cl)(Cl)Cl)c2ccc(Cl)cc21` (stereo not given), the T/C [11] is reported as 96 % of control, the T/C [5] is reported as 99 % of control and the T/C [13] is reported as 92 % of control. For the same molecule, the T/C (dose: 400.0 mg/kg/injection, schedule: Q01DX009 (ip), vehicle: saline with Tween-80) was 97 % of control.
For `O=[N+]([O-])CC1CCCCC1O` (stereo not given), the T/C (dose: 6.25 mg/kg/injection, schedule: Q04DX003 (ip), vehicle: saline with Tween-80) was 100 % of control, the T/C (dose: 12.5 mg/kg/injection, schedule: Q04DX003 (ip), vehicle: saline with Tween-80) was 100 % of control and the T/C [15] was 90 % of control.
For `O=C1NC(=O)C2C3C=CC(C12)C1C2C(=O)NC(=O)C2C31` (stereo not given), the T/C (dose: 12.5 mg/kg/injection, schedule: Q01DX009 (ip), vehicle: saline with Tween-80) was 108 % of control and the T/C [11] was 168 % of control.
With `C(#CSCc1ccccc1)SCc1ccccc1` the T/C [8] was 105 % of control, the T/C (dose: 100.0 mg/kg/injection, schedule: Q04DX003 (ip), vehicle: Klucel (hydroxypropylcellulose) (HPC)) was 87 % of control and the T/C [9] was 100 % of control. For the same molecule, the T/C (dose: 200.0 mg/kg/injection, schedule: Q04DX003 (ip), vehicle: Klucel (hydroxypropylcellulose) (HPC)) was 100 % of control, the T/C [10] was 100 % of control and the T/C (dose: 400.0 mg/kg/injection, schedule: Q04DX003 (ip), vehicle: Klucel (hydroxypropylcellulose) (HPC)) was 91 % of control.
`CC(C)C1CCC2=C(CCC3C(C)(C(=O)O)CCCC23C)C1` (stereo not given) was tested, and the T/C [6] was 109 % of control, the T/C [7] was 100 % of control and the T/C [16] was 100 % of control.
